Columns and labels:
Type in all cases: functional
Amaranthus retroflexus [1] = assay: Herbicidal activity against Amaranthus retroflexus assessed as inhibition of weed growth at 375 g/ha using postemergence treatment protocol; conditions: post-emergence
Amaranthus retroflexus [2] = assay: Herbicidal activity against Amaranthus retroflexus assessed as inhibition of weed growth at 750 g/ha using postemergence treatment protocol; conditions: post-emergence
Digitaria sanguinalis [3] = assay: Herbicidal activity against Digitaria sanguinalis (hairy crabgrass) assessed as inhibition of weed growth at 1.5 kg/ha using post-emergence treatment protocol
Amaranthus retroflexus [4] = assay: Herbicidal activity against Amaranthus retroflexus assessed as inhibition of weed growth at 1.5 kg/ha using postemergence treatment protocol; conditions: post-emergence
Brassica napus [5] = assay: Herbicidal activity against Brassica napus (oilseed rape) assessed as inhibition of weed growth at 375 g/ha using postemergence treatment protocol; conditions: post-emergence
Brassica napus [6] = assay: Herbicidal activity against Brassica napus (oilseed rape) assessed as inhibition of weed growth at 750 g/ha using postemergence treatment protocol; conditions: post-emergence
Brassica napus [7] = assay: Herbicidal activity against Brassica napus (oilseed rape) assessed as inhibition of weed growth at 1.5 kg/ha using preemergence treatment protocol; conditions: pre-emergence
Digitaria sanguinalis [8] = assay: Herbicidal activity against Digitaria sanguinalis (hairy crabgrass) assessed as inhibition of weed growth at 1.5 kg/ha using pre-emergence treatment protocol
Echinochloa crus-galli [9] = assay: Herbicidal activity against Echinochloa crus-galli (barnyard grass) assessed as inhibition of weed growth at 1.5 kg/ha using preemergence treatment protocol; conditions: pre-emergence
Amaranthus retroflexus [10] = assay: Herbicidal activity against Amaranthus retroflexus assessed as inhibition of weed growth at 1.5 kg/ha using preemergence treatment protocol; conditions: pre-emergence
Brassica napus [11] = assay: Herbicidal activity against Brassica napus (oilseed rape) assessed as inhibition of weed growth at 1.5 kg/ha using postemergence treatment protocol; conditions: post-emergence
Echinochloa crus-galli [12] = assay: Herbicidal activity against Echinochloa crus-galli (barnyard grass) assessed as inhibition of weed growth at 1.5 kg/ha using postemergence treatment protocol; conditions: post-emergence

Row | Structure (SMILES) | inhibition at 375 g/ha (Amaranthus retroflexus [1]) | inhibition at 750 g/ha (Amaranthus retroflexus [2]) | inhibition at 1500 g/ha (Digitaria sanguinalis [3]) | inhibition at 1500 g/ha (Amaranthus retroflexus [4]) | inhibition at 375 g/ha (Brassica napus [5]) | inhibition at 750 g/ha (Brassica napus [6]) | inhibition at 1500 g/ha (Brassica napus [7]) | inhibition at 1500 g/ha (Digitaria sanguinalis [8]) | inhibition at 1500 g/ha (Echinochloa crus-galli [9]) | inhibition at 1500 g/ha (Amaranthus retroflexus [10]) | inhibition at 1500 g/ha (Brassica napus [11]) | inhibition at 1500 g/ha (Echinochloa crus-galli [12])
1 | CCOCCOC(=O)/C(C#N)=C(\NCc1cc(-c2ccc(C(C)(C)C)cc2)no1)C(C)C | 54.3% | 89.1% | 24.7% | 100% | 41.7% | 85.8% | 0% | 0% | 0% | 0% | 100% | 0%
2 | CCOCCOC(=O)/C(C#N)=C(\NCc1cc(-c2ccccc2)no1)SC | 7% | 34% | 55.5% | 100% | 17.8% | 100% | 15.8% | 0% | 0% | 67.7% | 100% | 57%
3 | CCOCCOC(=O)/C(C#N)=C(\NCc1cc(-c2ccccc2OC)no1)SC | 0% | 16% | 52.3% | 90.6% | 15.8% | 43.8% | 19% | 17.3% | 0% | 47.8% | 100% | 52%
4 | CCOCCOC(=O)/C(C#N)=C(\NCc1cc(-c2ccc(Cl)cc2)no1)SC | 4% | 22% | 72.7% | 89.9% | 0% | 0% | 28.4% | 14.8% | 0% | 23.1% | 100% | 58.2%
5 | CCOCCOC(=O)/C(C#N)=C(\NCc1cc(-c2ccc(C(C)(C)C)cc2)no1)SC | 28.3% | 45.7% | 55.8% | 100% | 9.8% | 22.2% | 0% | 0% | 0% | 10% | 100% | 0%
6 | CCOCCOC(=O)/C(C#N)=C(\NCc1cc(Br)no1)SC | 0% | 0% | 55.3% | 99.1% | 87% | 93% | – | 0% | 2.4% | 0% | 100% | 36.8%
7 | CCOCCOC(=O)/C(C#N)=C(\NCc1cc(-c2ccc(Cl)cc2Cl)no1)SC | 0% | 46% | 64.1% | 89.9% | 0% | 0% | 45% | 15.6% | 0% | 65.8% | 100% | 45.2%
8 | CCOCCOC(=O)/C(C#N)=C(\NCc1cc(C(C)C)no1)SC | 0% | 37.6% | 48.4% | 94% | 52.3% | 76.9% | – | 0% | 0% | 25% | 100% | 32.6%
9 | CCOCCOC(=O)/C(C#N)=C(\NCc1cc(-c2ccc(OC)cc2)no1)SC | 34.8% | 87% | 32.5% | 100% | 57.5% | 94.6% | 10% | 0% | 0% | 0% | 100% | 0%
